In paper PMC8672851 (Science translational medicine, 2021):
pIC50: −log10 of the molar value.

Tests used:
[1] = test system: GC92-NHEJ-CD4 cells; assay: non-homologous end-joining reporter; type: cell-based; conditions: 0.4 μM; 48 hours post-transfection with I-SceI
[2] = test system: MV4-11 and UT-7 AML cell lines; assay: Annexin V/propidium iodide staining and flow cytometry; type: cell-based, human; conditions: 0.2 μM for 8 days
[3] = test system: UT-7 cells expressing VCP (A530T); assay: growth inhibition of UT-7 cells expressing NMS-873-resistant VCP; type: cell-based, human; conditions: four days
[4] = test system: RG37-DR-GFP cells; assay: homologous recombination reporter; type: cell-based; conditions: 0.4 μM; 48 hours post-transfection with I-SceI
[5] = cited from earlier work
[6] = test system: poly-ubiquitinated proteins, GRP78, spliced XBP-1, ATF-4; type: cell-based, human
[7] = test system: primary patient AML blasts; assay: colony-forming assay of primary patient AML samples in methylcellulose; type: cell-based, human; conditions: leukemia cells from patients with AML
[8] = test system: γH2AX; assay: FACS analysis of intracellular gammaH2AX in AML cells; type: cell-based, human
[9] = test system: MV4-11 cells; assay: combination with doxorubicin in MV4-11 cell line; type: cell-based, human; conditions: MV4-11 AML cell line
[10] = test system: human cone PDE6 (PDE6C); conditions: in vitro biochemical assays; relative to CB-5083
[11] = preclinical pharmacokinetics in multiple species; type: in vivo; conditions: preclinical studies in multiple species
[12] = test system: P-ATM (S1981); assay: ATM phosphorylation upon etoposide DSB induction; type: cell-based, human; conditions: upon etoposide DSBs induction
[13] = test system: MV4-11 cells; assay: cellular viability of MV4-11 AML cell line; type: cell-based, human
[14] = test system: MLL-AF9 cells; assay: MLL-AF9 syngeneic AML mouse model; type: in vivo; conditions: for leukemic disease burden: peripheral blood / bone marrow
[15] = type: in vivo; conditions: mice
[16] = in vivo
[17] = test system: patient-derived primary AML cells; assay: orthotopic patient-derived xenograft; type: in vivo, mouse; conditions: PDX; for leukemic disease burden: hCD45+ cells in peripheral blood or bone marrow
[18] = test system: panel of human cancer cell lines; assay: viability across a panel of human cancer cell lines; type: cell-based; conditions: 131 human cancer cell lines, 16 cancer types; three days
[19] = phase I trial; ref NCT02243917; cited from earlier work
[20] = test system: MV4-11-luc cells; conditions: MV4-11 xenograft

Cc1cc(OCc2nnc(SC3CCCC3)n2-c2cccnc2)ccc1-c1ccc(S(C)(=O)=O)cc1 [NMS-873]
effect on non-homologous end-joining (NHEJ) [1]: did not impair NHEJ | cell death / apoptosis [2]: induced Annexin-positive cell death | effect of VCP (A530T) expression on compound-induced loss of viability [3]: rescued the loss of viability | effect on homologous recombination (HR) DSB repair [4]: impairment of HR | pharmacological and bioavailability properties [5]: lacks appropriate pharmacological and bioavailability properties | concentration at which poly-ubiquitinated proteins started to accumulate ([6]; AML cells): 5 µM | colony formation of AML blasts [7]: impaired the capacity of AML blasts to form colonies | effect on γH2AX ([8]; MV4-11 and UT-7, 0.4 μM, 72 hours): increased γH2AX

Cc1cc2c(C(N)=O)cccc2n1-c1nc2c(c(NCc3ccccc3)n1)CCCN2 [CB-5339]
interaction with doxorubicin [9]: synergized with doxorubicin | fold less active on human cone PDE6 (PDE6C) compared to CB-5083 [10]: 15 fold | bioavailability compared to CB-5083 [11]: higher bioavailability | clearance compared to CB-5083 [11]: lower clearance | effect on ATM phosphorylation [12]: impaired ATM phosphorylation | concentration at which ATF-4 accumulated ([6]; AML context): ≥ 0.8 µM | concentration at which ER stress marker GRP78 accumulated ([6]; AML context): ≥ 0.4 µM | concentration at which spliced XBP-1 accumulated ([6]; AML context): ≥ 1.6 µM | concentration inducing polyubiquitin protein accumulation ([6]; AML context, dose-dependent): ≥ 0.4 µM | pIC50 [13]: 6.73 | survival [14]: prolonged survival | leukemic disease burden [14]: decreased circulating leukemic cells | tolerability (weight, blood counts) [15]: well tolerated | effect on γH2AX accumulation ([8]; 0.2 μM): increased γH2AX accumulation | times lower Cmax in rat retina compared to CB-5083 [16]: 31 times | survival ([17]; 90 mg/kg): prolonged mice survival | leukemic disease burden [17]: decreased bone marrow leukemic infiltration

Cc1cc2c(C(N)=O)cccc2n1-c1nc2c(c(NCc3ccccc3)n1)COCC2 [CB-5083]
colony formation of AML blasts [7]: impaired the capacity of AML blasts to form colonies | survival [14]: prolonged mice survival | leukemic disease burden [14]: decreased disease burden | tolerability (weight, blood counts) [15]: no major weight loss or hematopoietic toxicity | sensitivity of AML cell lines versus other cancer subtypes [18]: more sensitive | myelosuppression in patients [19]: not myelosuppressive | leukemic disease burden [17]: substantially decreased disease burden | disease burden (bioluminescence) [20]: decreased disease burden | survival [20]: prolonged mice survival
